Laboratory results: patent publication US9566224B2, “Tyrosinase inhibitors” (Avon Products, Inc., priority 2013, dated 2017)

Test system: Mushroom tyrosinase
Experiment: Mushroom tyrosinase assay (conversion of L-Tyrosine to DOPAchrome)
Type: biochemical
Conditions: 25° C., 30 min, absorbance 492 nm
Experimental: Mushroom Tyrosinase Assay. Mushroom tyrosinase and L-Tyrosine were obtained from Sigma-Aldrich, Inc. (St. Louis, Mo.). The enzyme activity was measured in buffer containing 100 mM phosphate buffer pH 6.8, 5% absolute ethanol, 2 micrograms/milliliter mushroom tyrosinase, and 0.2 mg/ml L-Tyrosine. The reaction (conversion of L-Tyrosine to DOPAchrome) was conducted in triplicates at 25° C. for 30 min, and absorbance was then measured at 492 nm. Kojic Acid was used as a positive control inhibitor in these assays. Percent change in tyrosinase activity relative to vehicle control was calculated.

Tyrosinase Inhibition (percent change in tyrosinase activity compared to DMSO vehicle control) (concentration 0.001%): −36% | Tyrosinase Inhibition (percent change in tyrosinase activity compared to DMSO vehicle control) (concentration 0.01%): −75%
SMILES: Oc1ccc(C=NNC(=S)NCC2CCCO2)c(O)c1 (centres unmarked) [AV6989]
